Measurements published in US9725459B2, “3-oxo-tetrahydro-furo[3,2-B]pyrrol-4(5H)-yl) derivatives I” (GRÜNENTHAL GMBH, priority 2014, dated 2017).
pKi: −log10 of the molar value.

What was measured:
Assay type in all cases: biochemical
human cathepsin K (CatK) = human cathepsin K (CatK) (Homo sapiens (Human), UniProt P43235); experiment: CatK functional enzyme assay; conditions: recombinant human CatK, substrate Z-FR-AMC 40 μM, pH 5.5; Ki by Cheng Prusoff equation; read-out: hCatK, Ki
Summary of the method: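 Recombinant human enzymes in 50 mM NaOAc, 10 mM EDTA, 1 mM DTT, 0.01% Triton X-100, pH 5.5, 10 min at RT. CatK: 0.00175 mU/well with 40 μM Z-FR-AMC; CatL: 0.000874 mU/well with 40 μM Z-VVR-AMC. AMC fluorescence read; IC50 converted to Ki via Cheng–Prusoff.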

human cathepsin S (CatS) = human cathepsin S (CatS) (Homo sapiens (Human), UniProt P25774); experiment: CatS functional enzyme assay; conditions: for Selectivity Ki(hCatS)/Ki(hCatK): ratio Ki(hCatS)/Ki(hCatK); for pKi: recombinant human CatS, substrate Z-VVR-AMC 5 μM, pH 6.5, Ki by Cheng Prusoff equation, read-out: hCatS, Ki
human cathepsin S (CatS), sequence (P25774 115-331): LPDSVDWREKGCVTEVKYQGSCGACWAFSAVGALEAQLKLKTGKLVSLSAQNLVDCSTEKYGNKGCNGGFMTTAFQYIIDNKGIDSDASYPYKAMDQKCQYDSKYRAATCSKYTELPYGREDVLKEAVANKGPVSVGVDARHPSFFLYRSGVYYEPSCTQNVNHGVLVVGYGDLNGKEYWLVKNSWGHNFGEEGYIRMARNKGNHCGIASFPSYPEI
Summary of the method: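 Recombinant human enzymes were incubated 10 min at RT with AMC substrate: CatS 0.0007 mU/well with Z-VVR-AMC 5 µM; CatK 0.00175 mU/well with Z-FR-AMC 40 µM; CatL 0.000874 mU/well with Z-VVR-AMC 40 µM. Fluorescence gave IC50, converted to Ki by Cheng-Prusoff.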

human cathepsin L (CatL) = human cathepsin L (CatL) (Homo sapiens (Human), UniProt P07711); experiment: CatL functional enzyme assay; conditions: read-out: hCatL, inhibition [%] at 31.6 μM
human cathepsin L (CatL), sequence (P07711 114-333): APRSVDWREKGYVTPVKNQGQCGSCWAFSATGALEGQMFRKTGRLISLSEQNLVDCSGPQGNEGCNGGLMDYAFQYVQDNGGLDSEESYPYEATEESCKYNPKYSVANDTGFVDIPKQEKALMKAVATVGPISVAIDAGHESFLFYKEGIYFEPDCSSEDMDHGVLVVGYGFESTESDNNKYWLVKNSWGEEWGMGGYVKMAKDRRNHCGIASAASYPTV

human cathepsin K (CatK), sequence (P43235 115-329): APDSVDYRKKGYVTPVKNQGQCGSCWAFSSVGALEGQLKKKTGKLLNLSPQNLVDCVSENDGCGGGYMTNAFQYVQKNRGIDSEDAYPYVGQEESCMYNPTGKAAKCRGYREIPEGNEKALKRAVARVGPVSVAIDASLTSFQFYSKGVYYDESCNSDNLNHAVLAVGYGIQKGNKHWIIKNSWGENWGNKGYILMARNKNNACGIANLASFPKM

Row | Compound | pKi (human cathepsin K (CatK)) | Selectivity Ki(hCatS)/Ki(hCatK) (human cathepsin S (CatS)) | pKi (human cathepsin S (CatS)) | inhibition at 31.6 µM (human cathepsin L (CatL))
1 | COc1cnnc(-c2ccc(C(=O)N[C@H](C(=O)N3C[C@H](Cl)[C@H]4OCC(=O)[C@H]43)C3CCCCC3)s2)c1 [Example 72, N-((S)-2-((3aS,6S,6aS)-6-chloro-3-oxotetrahydro-2H-furo[3,2-b]pyrrol-4(5H)-yl)-1-cyclohexyl-2-oxoethyl)-5-(5-methoxypyridazin-3-yl)thiophene-2-carboxamide] | 7.41 | 1.4 | 7.26 | 30%
2 | CCc1cnnc(-c2ccc(C(=O)N[C@H](C(=O)N3C[C@H](Cl)[C@H]4OCC(=O)[C@H]43)C3CCCCC3)s2)c1 [Example 73, N-((S)-2-((3aS,6S,6aS)-6-chloro-3-oxotetrahydro-2H-furo[3,2-b]pyrrol-4(5H)-yl)-1-cyclohexyl-2-oxoethyl)-5-(5-ethylpyridazin-3-yl)thiophene-2-carboxamide] | 7.82 | 0.9 | 7.89 | 26%
3 | O=C(N[C@H](C(=O)N1C[C@H](Cl)[C@H]2OCC(=O)[C@H]21)C1CCCCC1)c1ccc(-c2cc(C3CC3)cnn2)s1 [Example 74, N-((S)-2-((3aS,6S,6aS)-6-chloro-3-oxotetrahydro-2H-furo[3,2-b]pyrrol-4(5H)-yl)-1-cyclohexyl-2-oxoethyl)-5-(5-cyclopropylpyridazin-3-yl)thiophene-2-carboxamide] | 7.66 | 0.3 | 8.15 | 19%
4 | Cc1cc(-c2cnc(C(=O)N[C@H](C(=O)N3C[C@H](Cl)[C@H]4OCC(=O)[C@H]43)C3CCCCC3)s2)cnn1 [Example 75, N-((S)-2-((3aS,6S,6aS)-6-chloro-3-oxotetrahydro-2H-furo[3,2-b]pyrrol-4(5H)-yl)-1-cyclohexyl-2-oxoethyl)-5-(6-methylpyridazin-4-yl)thiazole-2-carboxamide] | 7.74 | 1.2 | 7.68 | 28%
5 | C[S+]([O-])c1cnnc(-c2ccc(C(=O)N[C@H](C(=O)N3C[C@H](Cl)[C@H]4OCC(=O)[C@H]43)C3CCCCC3)s2)c1 (stereo partly drawn) [Example 76, N-((S)-2-((3aS,6S,6aS)-6-chloro-3-oxotetrahydro-2H-furo[3,2-b]pyrrol-4(5H)-yl)-1-cyclohexyl-2-oxoethyl)-5-(5-(methylsulfinyl)pyridazin-3-yl)thiophene-2-carboxamide] | 7.52 | 1.0 | 7.54 | 19%
6 | Cc1cc(-c2cnc(C(=O)N[C@H](C(=O)N3C[C@H](Cl)[C@H]4OCC(=O)[C@H]43)C3CCCCC3)s2)cn[n+]1[O-] [Example 77, 4-(2-(((S)-2-((3aS,6S,6aS)-6-chloro-3-oxotetrahydro-2H-furo[3,2-b]pyrrol-4(5H)-yl)-1-cyclohexyl-2-oxoethyl)carbamoyl)thiazol-5-yl)-6-methylpyridazine 1-oxide] | 7.70 | 1.3 | 7.60 | 12%
7 | CS(=O)(=O)c1cnnc(-c2ccc(C(=O)N[C@H](C(=O)N3C[C@H](Cl)[C@H]4OCC(=O)[C@H]43)C3CCCCC3)s2)c1 [Example 78, N-((S)-2-((3aS,6S,6aS)-6-chloro-3-oxotetrahydro-2H-furo[3,2-b]pyrrol-4(5H)-yl)-1-cyclohexyl-2-oxoethyl)-5-(5-(methylsulfonyl)pyridazin-3-yl)thiophene-2-carboxamide] | 7.70 | 0.8 | 7.80 | 21%
8 | O=C(N[C@H](C(=O)N1C[C@H](Cl)[C@H]2OCC(=O)[C@H]21)C1CCCCC1)c1ccc(-c2ccc[n+]([O-])n2)s1 [Example 79, 3-(5-(((S)-2-((3aS,6S,6aS)-6-chloro-3-oxotetrahydro-2H-furo[3,2-b]pyrrol-4(5H)-yl)-1-cyclohexyl-2-oxoethyl)carbamoyl)thiophen-2-yl)pyridazine 1-oxide] | 7.68 | 2.7 | 7.25 | 25%
9 | O=C(N[C@H](C(=O)N1C[C@H](Cl)[C@H]2OCC(=O)[C@H]21)C1CCCCC1)c1ccc(-c2cnnc(O)c2)s1 [Example 80, N-((S)-2-((3aS,6S,6aS)-6-chloro-3-oxotetrahydro-2H-furo[3,2-b]pyrrol-4(5H)-yl)-1-cyclohexyl-2-oxoethyl)-5-(6-hydroxypyridazin-4-yl)thiophene-2-carboxamide] | 7.80 | 2.6 | 7.38 | 30%
10 | Cc1ncc(-c2ccc(C(=O)N[C@H](C(=O)N3C[C@H](Cl)[C@H]4OCC(=O)[C@H]43)C3CCCCC3)s2)c(C)n1 [Example 81, N-((S)-2-((3aS,6S,6aS)-6-chloro-3-oxotetrahydro-2H-furo[3,2-b]pyrrol-4(5H)-yl)-1-cyclohexyl-2-oxoethyl)-5-(2,4-dimethylpyrimidin-5-yl)thiophene-2-carboxamide] | 7.96 | 12.1 | 6.88 | 18%
11 | O=C(N[C@H](C(=O)N1C[C@H](Cl)[C@H]2OCC(=O)[C@H]21)C1CCCCC1)c1ncc(-c2ccnc(C3CC3)c2)s1 [Example 82, N-((S)-2-((3aS,6S,6aS)-6-chloro-3-oxotetrahydro-2H-furo[3,2-b]pyrrol-4(5H)-yl)-1-cyclohexyl-2-oxoethyl)-5-(2-cyclopropylpyridin-4-yl)thiazole-2-carboxamide] | 8.05 | 14.3 | 6.89 | 24%
12 | Cc1ncccc1-c1ccc(C(=O)N[C@H](C(=O)N2C[C@H](Cl)[C@H]3OCC(=O)[C@H]32)C2CCCCC2)s1 [Example 83, N-((S)-2-((3aS,6S,6aS)-6-chloro-3-oxotetrahydro-2H-furo[3,2-b]pyrrol-4(5H)-yl)-1-cyclohexyl-2-oxoethyl)-5-(2-methylpyridin-3-yl)thiophene-2-carboxamide] | 8.15 | 44.0 | 6.53 | 1%
13 | Cc1ccnnc1-c1ccc(C(=O)N[C@H](C(=O)N2C[C@H](Cl)[C@H]3OCC(=O)[C@H]32)C2CCCCC2)s1 [Example 84, N-((S)-2-((3aS,6S,6aS)-6-chloro-3-oxotetrahydro-2H-furo[3,2-b]pyrrol-4(5H)-yl)-1-cyclohexyl-2-oxoethyl)-5-(4-methylpyridazin-3-yl)thiophene-2-carboxamide] | 7.80 | 21.8 | 6.45 | 6%
14 | CCc1cc(-c2ccc(C(=O)N[C@H](C(=O)N3C[C@H](Cl)[C@H]4OCC(=O)[C@H]43)C3CCCCC3)s2)cnn1 [Example 85, N-((S)-2-((3aS,6S,6aS)-6-chloro-3-oxotetrahydro-2H-furo[3,2-b]pyrrol-4(5H)-yl)-1-cyclohexyl-2-oxoethyl)-5-(6-ethylpyridazin-4-yl)thiophene-2-carboxamide] | 8.30 | 1.1 | 8.22 | 14%
15 | CCc1cc(-c2ccc(C(=O)N[C@H](C(=O)N3C[C@H](Cl)[C@H]4OCC(=O)[C@H]43)C3CCCCC3)s2)ccn1 [Example 86, N-((S)-2-((3aS,6S,6aS)-6-chloro-3-oxotetrahydro-2H-furo[3,2-b]pyrrol-4(5H)-yl)-1-cyclohexyl-2-oxoethyl)-5-(2-ethylpyridin-4-yl)thiophene-2-carboxamide] | 9.00 | 16.7 | 7.62 | 25%
16 | CCc1cc(-c2cnc(C(=O)N[C@H](C(=O)N3C[C@H](Cl)[C@H]4OCC(=O)[C@H]43)C3CCCCC3)s2)ccn1 [Example 87, N-((S)-2-((3aS,6S,6aS)-6-chloro-3-oxotetrahydro-2H-furo[3,2-b]pyrrol-4(5H)-yl)-1-cyclohexyl-2-oxoethyl)-5-(2-ethylpyridin-4-yl)thiazole-2-carboxamide] | 8.40 | 16.2 | 7.23 | 14%
17 | Cc1cc(-c2ccc(C(=O)N[C@H](C(=O)N3C[C@H](Cl)[C@H]4OCC(=O)[C@H]43)C3CCCCC3)s2)c(C)cn1 [Example 88, N-((S)-2-((3aS,6S,6aS)-6-chloro-3-oxotetrahydro-2H-furo[3,2-b]pyrrol-4(5H)-yl)-1-cyclohexyl-2-oxoethyl)-5-(2,5-dimethylpyridin-4-yl)thiophene-2-carboxamide] | 7.74 | 18.6 | 6.47 | 0%
18 | Cc1cc(-c2ccc(C(=O)N[C@H](C(=O)N3C[C@H](Cl)[C@H]4OCC(=O)[C@H]43)C3CCCCC3)s2)c(C)nn1 [Example 89, N-((S)-2-((3aS,6S,6aS)-6-chloro-3-oxotetrahydro-2H-furo[3,2-b]pyrrol-4(5H)-yl)-1-cyclohexyl-2-oxoethyl)-5-(3,6-dimethylpyridazin-4-yl)thiophene-2-carboxamide] | 7.74 | 0.7 | 7.89 | 12%
